Measured values published in article PMC9293752, “Cholenic acid derivative UniPR1331 impairs tumor angiogenesis via blockade of VEGF/VEGFR2 in addition to Eph/ephrin” (Cancer Gene Therapy, 2021).

Biological target: T1, VEGFR2 (Homo sapiens, UniProt P35968)
T1 construct: gene KDR; monomeric recombinant form of the extracellular portion of VEGFR2 fused to Fc
Assay: SPR (BIAcore X100), steady-state Scatchard analysis; supported by VEGF/VEGFR2 ELISA displacement (IC50 […])
Type: binding

T1 sequence (P35968 20-764 limits assumed): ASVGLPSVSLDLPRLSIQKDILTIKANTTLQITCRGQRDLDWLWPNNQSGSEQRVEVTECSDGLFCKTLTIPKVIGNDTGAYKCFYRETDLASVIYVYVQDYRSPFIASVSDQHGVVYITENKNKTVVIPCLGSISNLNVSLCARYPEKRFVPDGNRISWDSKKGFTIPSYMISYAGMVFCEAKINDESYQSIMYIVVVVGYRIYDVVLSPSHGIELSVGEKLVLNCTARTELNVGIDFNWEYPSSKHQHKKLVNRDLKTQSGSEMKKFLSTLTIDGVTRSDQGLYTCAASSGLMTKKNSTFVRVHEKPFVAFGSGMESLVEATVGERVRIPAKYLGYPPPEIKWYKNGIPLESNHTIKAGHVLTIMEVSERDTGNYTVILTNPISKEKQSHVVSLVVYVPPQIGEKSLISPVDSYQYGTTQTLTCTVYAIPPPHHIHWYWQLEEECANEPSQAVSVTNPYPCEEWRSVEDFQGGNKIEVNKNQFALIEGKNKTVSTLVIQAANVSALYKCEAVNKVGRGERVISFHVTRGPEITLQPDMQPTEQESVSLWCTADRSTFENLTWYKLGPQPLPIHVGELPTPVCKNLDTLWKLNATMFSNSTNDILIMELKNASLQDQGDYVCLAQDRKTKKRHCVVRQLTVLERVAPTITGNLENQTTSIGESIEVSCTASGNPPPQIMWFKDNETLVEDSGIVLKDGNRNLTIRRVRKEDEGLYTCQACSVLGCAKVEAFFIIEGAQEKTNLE

Compound: C[C@H](CCC(=O)N[C@@H](Cc1c[nH]c2ccccc12)C(=O)O)[C@H]1CC[C@H]2[C@@H]3CC=C4C[C@@H](O)CC[C@]4(C)[C@H]3CC[C@]12C [UniPR1331]
- Kd: 62.2 ± 2.1 µM
